This is an account of results in patent publication US20130164337A1, “ANTIMICROBIAL ACTION PHARMACEUTICAL COMPOSITION FOR PARENTERAL ADMINISTRATION AND ITS PRODUCTION PROCESS” (priority 2010, published 2013).

Common to all, as to assay: Experimental sepsis model in mice, survival on the 7th day
What all share (assay type): in vivo

Assay [1] concerns Escherichia coli (ATCC 25922 F-50). To be noted: Escherichia coli 8×10^8 CFU/mouse; 100 mg/kg intravenous daily during 3 days; hybrid mice (CBA×C57Black/6)CBF1. The source says:
(§1) To determine therapeutic efficiency of betalactam and their pharmaceutical compositions including BHSiO2, we used experimental sepsis models and a statistical processing method of the received data (χ^2) according to [22, 23].
(§2) Microorganisms: Staphylococcus aureus (ATCC ? 25923 F-49), Escherichia coli (ATCC ? 25922 F-50), Pseudomonas aeruginosa (ATCC ? 27853 F-51).
(§3) Animals: for the experiments we used hybrid mice (CBA×C57Black/6)CBF1 according to the “Regulations for test animals use” (USSR Ministry of health order supplement ? 755 from 12.08. 1977).
(§4) The mice have been injected 0.8 ml of Pseudomonas aeruginosa daily culture suspension with a dosage 5×10^8 CFU/mouse or Staphylococcus aureus daily culture suspension with a dosage of 10^10 CFU/mouse or Escherichia coli daily culture suspension with a dosage of 8×10^8 CFU/mouse.
(§5) The control group has been injected with 0.8 ml of normal saline solution (0.9% sodium chloride solution). In a day after being infected the test mice have been daily (during 3 days) intravenous injected with 100 mg/kg of antibiotics or different pharmaceutical compositions (antibiotic/BHSiO2) watered down with 0.25 ml of normal saline solution. The control group of mice has been injected using the same scheme with normal saline solution […].
(§6) Antibacterial therapy efficiency was evaluated basing on the quantity of the surviving animals on the 7th day after being infected.
(§7) The obtained data shown in Table ? 3 reflect the results of 3 independent experiments (for each preparation research were used not less than 30 test animals in total).

Assay [2] concerns Staphylococcus aureus (ATCC 25923 F-49). The following applies: Staphylococcus aureus 10^10 CFU/mouse; 100 mg/kg intravenous daily during 3 days; hybrid mice (CBA×C57Black/6)CBF1.
Description: as §1, §2, §3, §4, §5, §6, §7

For assay [3], the system named is Pseudomonas aeruginosa (ATCC 27853 F-51). To be noted: Pseudomonas aeruginosa 5×10^8 CFU/mouse; 100 mg/kg intravenous daily during 3 days; hybrid mice (CBA×C57Black/6)CBF1.
Description: as §1, §2, §3, §4, §5, §6, §7

Each structure is given as a SMILES string.

Turning to `CO[C@@]1(NC(=O)Cc2cccs2)C(=O)N2C(C(=O)O)=C(COC(N)=O)CS[C@@H]21` [Cefoxitin], the entries for the “Mice survival rate on the 7th day of infection” value (“Mice survival rate” below) in assay [1] and in assay [2] were 46.7% (14/30) and 35.2% (15/34), respectively.
Turning to `Cc1nnc(SCC2=C(C(=O)O)N3C(=O)[C@@H](NC(=O)Cn4cnnn4)[C@H]3SC2)s1` [Cefazolin], the “Mice survival rate” value in assay [2] was 37.5% (12/32).
As for `CCN1CCN(C(=O)N[C@@H](C(=O)N[C@@H]2C(=O)N3C(C(=O)O)=C(CSc4nnnn4C)CS[C@H]23)c2ccc(O)cc2)C(=O)C1=O` [Cefoperazone], the “Mice survival rate” value was 45.2% (14/31) in assay [1] and 40.0% (12/30) in assay [3].
Regarding `CC1(C)S[C@@H]2[C@H](NC(=O)C(C(=O)O)c3ccccc3)C(=O)N2[C@H]1C(=O)O` (stereo partly drawn) [Carbenicillin], the “Mice survival rate” value in assay [1] was 43.3% (13/30); in assay [3] it was 43.3% (13/30); in assay [2], 46.7% (14/30).
For the compound `CC(C)(O/N=C(\C(=O)N[C@@H]1C(=O)N2C(C(=O)[O-])=C(C[n+]3ccccc3)CS[C@H]12)c1csc(N)n1)C(=O)O` [Ceftazidime], the “Mice survival rate” value is 38.7% (15/31) in assay [1] and 43.3% (13/30) in assay [3].
Regarding `CO/N=C(\C(=O)N[C@@H]1C(=O)N2C(C(=O)O)=C(COC(C)=O)CS[C@H]12)c1csc(N)n1` [Cefotaxime], the results for the “Mice survival rate” value in assay [1] and in assay [2] were 43.3% (13/30) and 40.0% (12/30), respectively.
The like results for `CO/N=C(\C(=O)N[C@@H]1C(=O)N2C(C(=O)O)=C(CSc3nc(=O)c(=O)[nH]n3C)CS[C@H]12)c1csc(N)n1` [Ceftriaxone] were, in that order, 41.9% (13/31) and 46.7% (14/30).
Consider `CO/N=C(\C(=O)N[C@@H]1C(=O)N2C(C(=O)[O-])=C(C[N+]3(C)CCCC3)CS[C@H]12)c1csc(N)n1` [Cefepime], for which the “Mice survival rate” value in assay [1] is 43.7% (14/32); in assay [3], 46.7% (14/30); in assay [2] it was 46.7% (14/30).
For `C[C@H]1[C@H](NC(=O)/C(=N\OC(C)(C)C(=O)O)c2csc(N)n2)C(=O)N1S(=O)(=O)O` [Aztreonam], the results for the “Mice survival rate” value in assay [1] and in assay [3] were 77.5% (31/40) and 74.4% (32/43), respectively.
Consider `CO/N=C(\C(=O)N[C@@H]1C(=O)N2C(C(=O)O)=C(COC(N)=O)CS[C@H]12)c1ccco1` [Cefuroxime], for which the “Mice survival rate” value in assay [1] is 43.7% (14/32); in assay [2], 40.0% (14/35).
On to `C[C@@H](O)[C@H]1C(=O)N2C(C(=O)O)=C(S[C@@H]3CN[C@H](C(=O)N(C)C)C3)[C@H](C)[C@H]12` [Meropenem], for which the “Mice survival rate” value in assay [1] was 78.0% (32/41); in assay [3], 73.8% (31/42); in assay [2], 73.3% (22/30).
